Reference: patent publication US11352391B2, “Compositions for inducing urinary voiding and defecation” (Dignify Therapeutics, LLC, priority 2017, dated 2022)
Where two headings read alike, the source gives them in different places. Where a SMILES comes first, the peptide text is derived from it. Where no end group is shown, it is not given here.

What was measured:
[1] = Saline solubility of heptapeptides; format: physicochemical
Procedure: Heptapeptides A-K shown below in Table 1 (SEQ ID NOs: 1-11) were synthesized according to standard Fmoc-mediated solid-phase techniques and purified under typical C18 reverse-phase conditions.
Compounds D-K were considered to be insoluble in saline (<1 mg/mL).

[2] = target: T1, recombinant hNK2R expressed in CHO cells (Homo sapiens, UniProt P21452); experiment: Intracellular calcium mobilization (FLIPR) in CHO-hNK2 cells; format: cell-based; conditions: for hNK2 selectivity ratio: ratio of EC50s hNK1R/hNK2R
T1 sequence (P21452 1-398): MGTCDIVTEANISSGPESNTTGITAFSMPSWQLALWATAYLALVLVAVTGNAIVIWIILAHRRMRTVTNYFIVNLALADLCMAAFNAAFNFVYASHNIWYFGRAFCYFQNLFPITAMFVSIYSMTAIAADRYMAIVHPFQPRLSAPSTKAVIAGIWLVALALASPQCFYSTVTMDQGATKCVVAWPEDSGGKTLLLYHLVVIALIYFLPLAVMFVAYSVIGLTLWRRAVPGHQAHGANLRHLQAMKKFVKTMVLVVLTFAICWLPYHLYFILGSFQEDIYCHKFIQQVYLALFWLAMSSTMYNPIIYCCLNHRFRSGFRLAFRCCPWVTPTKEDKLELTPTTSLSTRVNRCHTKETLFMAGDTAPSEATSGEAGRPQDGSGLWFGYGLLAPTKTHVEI
Procedure: (§1) CHO-hNK1 and CHO-hNK2 cells were seeded into black walled clear-bottom 384-well plates) at a density of 10,000 and 15,000 cells per well in 50 μL culture media, respectively, and grown overnight at 37° C. in a humidified CO2-incubator. Cells were washed in washing buffer using the EMBLA 384 instrument, leaving 20 μL of buffer per well after the final aspiration. Cells were then incubated at 37° C. with the cytoplasmic Ca2+ indicator Fluo-4 AM (final concentration 1 μM) in assay buffer (20 mM HEPES, 145 mM NaCl, 5 mM KCl, 5.5 mM glucose, 1 mM MgCl2 and 2 mM CaCl2, pH 7.4, 0.05% Pluronic F-127 and 0.1% BSA) containing 2.5 mM probenecid for […] (cell loading). Cells were then washed 3 times in washing buffer (20 mM HEPES, 145 mM NaCl, 5 mM KCl, 5.5 mM glucose, 1 mM MgCl2 and 2 mM CaCl2, pH 7.4 and 2.5 mM probenecid) using the EMBLA 384 instrument, leaving 30 μL of buffer in each well after the last wash. Loaded cell plates were transferred to the FLIPR machine and calcium responses were monitored as described below. A dual read-out FLIPR protocol was used, allowing for characterization of both agonist and antagonist profiles. For quality control, in each compound plate the signal was monitored by evaluating the responses to the reference standards (NKA and Substance P).
(§2) Concentration response curves of compounds were run in duplicate on two different occasions from the same stock solutions. Test solutions were prepared from 10 mM stock solutions in DMSO and 1 μL of each solution was stamped into V-bottom assay plates containing 49 μL assay buffer. The final concentration of DMSO was 0.5% in each well.

[3] = target: human NK1 Receptor (hNK1R) (Homo sapiens, UniProt P25103); experiment: [3H]-septide radioligand competition binding to human recombinant NK1Rs (CHO-hNK1 membranes)
Sequence of human NK1 Receptor (hNK1R) (P25103 whole entry): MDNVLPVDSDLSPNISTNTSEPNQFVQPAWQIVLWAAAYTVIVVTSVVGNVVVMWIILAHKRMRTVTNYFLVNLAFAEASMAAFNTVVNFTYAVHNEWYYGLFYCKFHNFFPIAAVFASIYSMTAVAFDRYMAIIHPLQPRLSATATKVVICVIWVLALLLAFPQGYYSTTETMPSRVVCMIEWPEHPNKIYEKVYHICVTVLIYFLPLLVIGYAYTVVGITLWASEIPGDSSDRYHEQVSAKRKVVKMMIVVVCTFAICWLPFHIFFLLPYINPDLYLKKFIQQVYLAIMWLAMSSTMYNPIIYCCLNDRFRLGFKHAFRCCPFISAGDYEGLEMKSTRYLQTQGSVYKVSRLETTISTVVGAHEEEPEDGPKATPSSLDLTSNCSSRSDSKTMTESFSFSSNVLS
Procedure: (§3) After removal of the supernatant the cell pellet was washed and collected by re-suspension in PBS and centrifugation.
(§4) Frozen pellets were thawed and homogenized in 10 volumes (w/v) of membrane preparation buffer (50 mM HEPES pH 7.4, 1 mM EDTA, 50 μg/mL bacitracin and protease inhibitors) using a Polytron Ultraturrax (twice for 15 s per cycle). […] Protein concentration was determined using BioRad Protein Assay (Milan, Italy) with a BSA standard curve.

[4] = target: recombinant hNK1R expressed in CHO cells (Homo sapiens, UniProt P25103); experiment: Intracellular calcium mobilization (FLIPR) in CHO-hNK1 cells; format: cell-based
Sequence of recombinant hNK1R expressed in CHO cells (P25103 whole entry): as above
Procedure: as §1, §2

[5] = target: T2, human NK2 Receptor (hNK2R) (Homo sapiens, UniProt P21452); experiment: [125I]-NKA radioligand competition binding to human recombinant NK2Rs (CHO-hNK2 membranes); conditions: for hNK2 selectivity ratio: ratio of Kis hNK1R/hNK2R
T2 sequence (P21452 1-398): T1 sequence (P21452 1-398)
Procedure: as §3, §4

[6] = Pharmacokinetics in rat plasma after cassette IV bolus dosing; conditions: Sprague-Dawley, in vivo
Procedure: The concentrations of compounds (SEQ ID NOS: 1-11) were measured in rat plasma after intravenous (IV) bolus dosing to determine pharmacokinetic profiles of individual compounds.
Animal preparation: In vivo studies were performed in anesthetized adult Sprague Dawley rats. Rats were anesthetized with urethane (1.2-1.4 g/kg subcutaneous injection). Surgical procedures were then performed with the addition of isoflurane anesthesia (0.05-1.5% in 02) as needed. A venous cannula was inserted into the jugular vein for intravenous (IV) administration of compounds.
In vivo dosing and plasma sampling: Compounds were divided into two groups (soluble and insoluble). Each group was dosed as a cassette in which four compounds (100 μg/kg each compound) were combined into a single IV bolus injection to anesthetized adult Sprague-Dawley rats. Soluble compounds were dissolved in saline. Insoluble compounds were dissolved in a 10% ethanol/saline solution. Rats were cassette dosed based on weight using 0.1 mg/mL solutions of individual compounds. Blood samples (700 μL) were collected using a carotid artery cannula into EDTA tubes containing ascorbic acid (final concentration 1%), and plasma was isolated.
Bioanalytical assay: A reversed-phase HPLC with Turbo Ion Spray MS/MS detection method was developed for bioanalysis. Mass spec transition and settings were individually optimized for each compound and then compounds were cassetted for HPLC method development and optimization. [^13C9; ^15N] [Lys5,MeLeu9,Nle10]-NKA(4-10) was used as an internal standard (IS). Analyte-to-IS peak area ratios for individual compounds were used to create linear calibration curves (1-20 ng/mL) using 1/×2 weighted least-squares regression analysis for evaluation of method linearity, precision and accuracy. For plasma concentration measurements, plasma samples were spiked with IS, processed by extraction, and analyzed using LC-MS/MS. Positive (M+H)+ ions for individual compounds and IS were monitored in MRM mode.

anesthetized dog = experiment: Colorectal pressure manometry in anesthetized dog; format: in vivo
Procedure: Animal preparation: Naïve beagle dogs were fasted for 12-24 hours and received a warm water enema the night prior to, and the morning of, the experiment to clear the rectum and lower colon of feces. The day of the experiment, a 20 gauge IV catheter (Terumo Surflo) was placed in the cephalic vein for anesthetic induction (propofol, 10 mg/kg; IV) and delivery of IV fluids (5-10 ml/kg/hr) and compounds. The sedated dog was intubated with a 5-6 Fr tracheal tube and was maintained on 2-3% isoflurane via a ventilator (15-25 breaths/min; tidal volume […]) for the remainder of the experiment.
Bowel contractility: For colorectal pressure manometry, an ˜3 inch balloon catheter was inserted into the rectum and secured to the tail with tape. This catheter was connected via a three-way stopcock to a pressure transducer (UTAH MEDICAL PRODUCTS; DelTran II) for pressure recording. Data were recorded using PowerLab/8SP acquisition system using LabChart software (version 7.3.7; ADINSTRUMENTS, Australia). Arterial pressure, ECG, temperature and blood oxygen saturation (spO2) were monitored throughout the experiment (MEDTRONIC LIFEPAK12). Dogs were recovered in a quiet room under veterinary supervision.

[7] = calcium mobilization, CHO-hNK2 cells, read-out: hNK2 EC50
[8] = displacement of 5.0 nM [3H]-septide, CHO-hNK1 membranes, read-out: hNK1 binding Ki
[9] = calcium mobilization, CHO-hNK1 cells, read-out: hNK1 EC50
[10] = displacement of 0.1 nM [125I]-NKA, CHO-hNK2 membranes, read-out: hNK2 binding Ki

Row | Compound | solubility [1] [µg/mL] | EC50 [2, 7] [nM] | hNK2 selectivity ratio [2] | Ki [3, 8] [nM] | EC50 [4, 9] [nM] | Ki [5, 10] [nM] | hNK2 selectivity ratio [5] | half-life ([6]; iv) [min] | Ki [3] [nM] | Ki [5] [nM] | duration of colorectal pressure response (anesthetized dog; IV bolus (B and E 3 μg/kg; G 3, 30 and 66 ug/kg)) | onset of increase in colorectal pressure (anesthetized dog; IV bolus (E 3 μg/kg; G 3, 30 and 66 ug/kg)) [min] | EC50 [2] [nM] | level at 10 min ([6]; 100 ug/kg, cassette IV bolus 100 μg/kg, by 10 min post-dose, read-out: plasma concentration) [ng/mL] | half-life ([6]; cassette IV bolus, 100 μg/kg each compound, read-out: plasma t1/2) [min] | EC50 [4] [nM]
1 | CSCC[C@H](NC(=O)[C@H](CC(C)C)N(C)C(=O)CNC(=O)[C@@H](NC(=O)[C@H](Cc1ccccc1)NC(=O)[C@H](CCCNC(=N)N)NC(=O)[C@@H](N)CC(=O)O)C(C)C)C(N)=O [C, Asp-Arg-Phe-Val-Gly-(NMe-Leu)-Met-NH2] (HELM PEPTIDE1{D.R.F.V.G.[meL].M.[am]}$$$$V2.0; N-terminus assumed) | > 20000 | 0.16 | 2 | 20.9 | 0.3 | 0.12 | 167.49 | – | – | – | – | – | – | – | – | –
2 | CCCC[C@H](NC(=O)[C@H](CC(C)C)NC(=O)CCNC(=O)[C@@H](NC(=O)[C@H](Cc1ccccc1)NC(=O)[C@H](CCCNC(=N)N)NC(=O)[C@@H](N)CC(=O)O)C(C)C)C(N)=O [K, Asp-Arg-Phe-Val-(β-Ala)-Leu-Nle-NH2] (HELM PEPTIDE1{D.R.F.V.[bAla].L.[Nle].[am]}$$$$V2.0; N-terminus assumed) | < 1000 | 1.16 | 25 | 1200 | 29.5 | 6.85 | 175.59 | 3.3 to 4.7 | – | – | – | – | – | – | – | –
3 | CCCC[C@H](NC(=O)[C@H](CC(C)C)NC(=O)CNC(=O)[C@@H](NC(=O)[C@H](Cc1ccccc1)NC(=O)[C@H](CCCNC(=N)N)NC(=O)[C@@H](N)CC(=O)O)C(C)C)C(N)=O [J, Asp-Arg-Phe-Val-Gly-Leu-Nle-NH2] (HELM PEPTIDE1{D.R.F.V.G.L.[Nle].[am]}$$$$V2.0; N-terminus assumed) | < 1000 | 0.2 | 9 | – | 1.71 | – | 72.53 | – | 126 | 1.74 | – | – | – | – | – | –
4 | CSCC[C@H](NC(=O)[C@H](CC(C)C)NC(=O)CCNC(=O)[C@@H](NC(=O)[C@H](Cc1ccccc1)NC(=O)[C@H](CCCCN)NC(=O)[C@@H](N)CC(=O)O)C(C)C)C(N)=O [Compound E, Asp-Lys-Phe-Val-(β-Ala)-Leu-Met-NH2] (HELM PEPTIDE1{D.K.F.V.[bAla].L.M.[am]}$$$$V2.0; N-terminus assumed) | < 1000 | 0.18 | 36 | 257 | 6.31 | 2.11 | 122.04 | 3.3 to 4.7 | – | – | approximately 4 minutes | ≤ 1 | – | – | – | –
5 | CSCC[C@H](NC(=O)[C@H](CC(C)C)NC(=O)CNC(=O)[C@@H](NC(=O)[C@H](Cc1ccccc1)NC(=O)[C@H](CCCCN)NC(=O)[C@@H](N)CC(=O)O)C(C)C)C(N)=O [D, Asp-Lys-Phe-Val-Gly-Leu-Met-NH2] | < 1000 | 0.09 | – | – | 0.41 | – | – | – | – | – | – | – | – | – | – | –
6 | CSCC[C@H](NC(=O)[C@H](CC(C)C)NC(=O)CCNC(=O)[C@@H](NC(=O)[C@H](Cc1ccccc1)NC(=O)[C@H](CCCNC(=N)N)NC(=O)[C@@H](N)CC(=O)O)C(C)C)C(N)=O [I, Asp-Arg-Phe-Val-(β-Ala)-Leu-Met-NH2] (HELM PEPTIDE1{D.R.F.V.[bAla].L.M.[am]}$$$$V2.0; N-terminus assumed) | < 1000 | 0.15 | 12 | 95.5 | 1.83 | 0.88 | 108.27 | – | – | – | – | – | – | – | – | –
7 | CSCC[C@H](NC(=O)[C@H](CC(C)C)N(C)C(=O)CNC(=O)[C@@H](NC(=O)[C@H](Cc1ccccc1)NC(=O)[C@H](CCCCN)NC(=O)[C@@H](N)CC(=O)O)C(C)C)C(N)=O [A, Asp-Lys-Phe-Val-Gly-(NMe-Leu)-Met-NH2] | > 20000 | – | 7 | – | – | – | 248.89 | – | 50.1 | 0.2 | – | – | 0.14 | < 1 | 0.2 to 1.2 | 0.95
8 | CCCC[C@H](NC(=O)[C@H](CC(C)C)NC(=O)CNC(=O)[C@@H](NC(=O)[C@H](Cc1ccccc1)NC(=O)[C@H](CCCCN)NC(=O)[C@@H](N)CC(=O)O)C(C)C)C(N)=O [F, Asp-Lys-Phe-Val-Gly-Leu-Nle-NH2] | < 1000 | 0.38 | 6 | – | 2.36 | – | 81.47 | – | 224 | 2.75 | – | – | – | – | – | –
9 | DRFVGLM-NH2 [H, Asp-Arg-Phe-Val-Gly-Leu-Met-NH2] | < 1000 | 0.19 | 0.8 | – | 0.16 | – | 27.10 | – | 8.32 | 0.31 | – | – | – | – | – | –
